According to patent US20250346643A1, “TROPOMYOSIN KINASE RECEPTOR (TRK) LIGANDS AS THERAPEUTICS TO SUPPORT LIVER REGENERATION” (Vanderbilt University, priority 2024, published 2025):

Tests used:
[1] = test system: CCND1 and PCNA; assay: Immunoblotting of HDOs for CCND1 and PCNA; format: cell-based, human; conditions: NTF3
Procedure: Human ductal organoids. The normal human liver tissue was obtained through the Cooperative Human Tissue Network (CHTN) at Vanderbilt University Medical Center. The liver was cut into very small pieces in liver digestion medium (Gibco, Waltham, MA; 17703-034). The cell suspension was filtered through a 100-μm cell strainer. The flow through was then centrifuged for 2 min at 100 g, 4° C., and the cell pellet resuspended in ice-cold DMEM (Gibco, Waltham, MA; 11885-084, supplemented by 5% FBS) and centrifuged for 2 min at 300 g. The cell pellet was gently resuspended in Matrigel® (Corning, Corning, NY; 356231) and a […] dome plated in a 24-well plate. The plate was incubated for 10-15 min at 37° C. […]
Immunoblotting. […] Protein concentration of supernatants was determined by Direct Detect Spectrophotometer (MilliporeSigma, Burlington, MA). […] The protein concentration of supernatants was determined by a Direct Detect® spectrophotometer (MilliporeSigma, Burlington, MA). For immunoblot analysis, 10 to 50 μg of protein diluted in […] sample buffer (Invitrogen, Waltham, MA) were analyzed per SDS-polyacrylamide gel electrophoresis (NuPAGE™, Invitrogen, Waltham, MA) using Mops buffer or MES buffer (Invitrogen, Waltham, MA). […] Semi-quantitative band densitometry was performed using ImageJ software (version 1.53).

[2] = test system: mTORC1; assay: Immunoblotting of HDOs for P-S6RP and P-P70S6K (mTORC1 activation); format: cell-based, human; conditions: HDO, serum free and glutamine free William's E medium (FIG. 20A-C)
Procedure: Human ductal organoids. The normal human liver tissue was obtained through the Cooperative Human Tissue Network (CHTN) at Vanderbilt University Medical Center. The liver was cut into very small pieces in liver digestion medium (Gibco, Waltham, MA; 17703-034). The cell suspension was filtered through a 100-μm cell strainer. The flow through was then centrifuged for 2 min at 100 g, 4° C., and the cell pellet resuspended in ice-cold DMEM (Gibco, Waltham, MA; 11885-084, supplemented by 5% FBS) and centrifuged for 2 min at 300 g. The cell pellet was gently resuspended in Matrigel® (Corning, Corning, NY; 356231) and a […] dome plated in a 24-well plate. The plate was incubated for 10-15 min at 37° C. After solidifying, complete HepatiCult™ Organoid Initiation Medium (OIM) (STEMCELL Technologies, Vancouver, Canada; 100-0384) was added. For passaging, the Matrigel dome was dissociated using TrypLE (Thermo Fisher Scientific, Waltham, MA; 12604013) and incubated at 37° C. for 5 mins. Organoids were washed by resuspending in advanced DMEM/F12 and consecutive resuspension of the organoid pellet. Organoids were resuspended at a 1:10 dilution in Matrigel® and cultured in complete HepatiCult™ Organoid Growth Medium (OGM) (STEMCELL Technologies, Vancouver, Canada; 100-0385) for organoid expansion. For hepatocytic differentiation of hepatic ductal organoids, culture medium was changed to complete HepatiCult™ Organoid Differentiation Medium (ODM) (STEMCELL Technologies, 100-0383) 4 days after passaging. Vehicle, NTF3, BDNF, HGF (20 ng/ml final concentration) or Taletrectinib (Fisher Scientific, Waltham, MA; 502030245, final concentration 10 nM) or torin2 (Fisher Scientific, Waltham, MA; s2817, final concentration 25 nM) were diluted in William's E (without L-glutamine) and added to organoids.
Immunoblotting. HDOs and mpPHH were homogenized in RIPA buffer containing proteinase inhibitors (Roche, Basel, Switzerland; cOmplete™ Mini protease inhibitor, 2 tab/10 ml buffer) and 1×HALT phosphatase inhibitors (Thermo Fisher Scientific, Waltham, MA; catalog no. 78428). Lysates were sonicated and then centrifuged for 10 min at 18,800 g. Protein concentration of supernatants was determined by Direct Detect Spectrophotometer (MilliporeSigma, Burlington, MA). HDOs were treated with growth factors as described above. Lyophilized NTF3 was solubilized with sterile-filtered PBS supplemented with 0.1% BSA, aliquoted, and stored at −80° C. until use. […] HDOs and mpPHH were collected on ice in PBS and centrifuged for 10 s, and the cell pellet was homogenized in RIPA buffer containing inhibitors (Roche, Basel, Switzerland; cOmplete™ Mini protease inhibitor, 1×HALT phosphatase inhibitors, Thermo Fisher Scientific, Waltham, MA; catalog no. 78428). Cell lysates were sonicated and centrifuged for 10 min at 18,800 g. The protein concentration of supernatants was determined by a Direct Detect® spectrophotometer (MilliporeSigma, Burlington, MA). For immunoblot analysis, 10 to 50 μg of protein diluted in […] sample buffer (Invitrogen, Waltham, MA) were analyzed per SDS-polyacrylamide gel electrophoresis (NuPAGE™, Invitrogen, Waltham, MA) using Mops buffer or MES buffer (Invitrogen, Waltham, MA). […] Semi-quantitative band densitometry was performed using ImageJ software (version 1.53).

NTF3: neurotrophin-3, recombinant protein; HSC-derived hepatocyte mitogen, ligand of TRKA, TRKB, TRKC
CCND1 and PCNA (immunoblotting) [1]: induced CCND1 and PCNA | phosphorylation of P-p70S6 kinase and P-S6 ribosomal protein (S6RP) [2]: significantly increased phosphorylation
